Each block holds one compound with its values, some of them ahead of it.
What was measured:
Type in all cases: in vitro ADME
[1] = Metal enhanced fluorescence permeation assay, ternary domain forming lipid bilayer on gold microcavity array; conditions: 0.1 mM
Description: (§1) Following removal of PS spheres, if in place, washing and aqueous filling of the array a Langmuir monolayer of lipids was spread across the micropore array, using either a Model 102M, LB trough or Model KN2006 from KSV-NIMA technology, LB alternate. The lipid mixture (across single or diverse lipid compositions) was prepared in chloroform at a concentration of 1 mg/ml. 50 μL of this solution was suspended on the water sub-phase. Fifteen minutes were allocated for evaporation of the solvent, prior to lipid monolayer compression. […]
(§2) A Horiba Labram HR instrument was used for both Raman and fluorescence measurements using a 50× long distance magnification objective (Leica). The wavelengths were typically 473 nm and 785 nm were used for fluorescence measurements and Raman measurements respectively. […] Typically a 1% neutral density filter and 300 μm slit were used for fluorescence and no filter for Raman. […]
(§3) For drug/molecular diffusion studies, drug solutions were prepared as stock solutions for introduction into the bilayer contacting solution dissolved in PBS or Tris buffer at concentrations that permitted final concentrations (on contact with the bilayer buffer) of 1 nM to several millimolar. […] Drug diffusion samples were analysed by first obtaining a bilayer spectra while sample is immersed in PBS. […]

[2] = SERS permeation assay, DOPC lipid bilayer suspended over gold cavity array; conditions: 1 um gold array, PBS buffer, 785 nm
Description: as §1, §2, §3

[3] = Metal enhanced fluorescence permeation assay, DOPC bilayer spanned over gold microcavity array
Description: as §1, §2, §3

permeability of ternary lipid bilayer to the drug ([1]; 2-hour window, two replicate measurements, DOPC:SM:Chol 40:40:20): impermeable
Compound: COc1cccc2c1C(=O)c1c(O)c3c(c(O)c1C2=O)C[C@@](O)(C(C)=O)C[C@@H]3O[C@H]1C[C@H](N)[C@H](O)[C@H](C)O1 [Duanorubicin]
time for emission to reach steady state ([1]; unstirred solution, ternary bilayer): less than 20 mins

permeability across DOPC bilayer (dynamics of evolution of SERS signal, presence vs absence of bilayer) [2]: passively permeable
Compound: CC(C)Cc1ccc(C(C)C(=O)O)cc1 (centres unmarked) [Ibuprofen]

permeation through DOPC bilayer (fluorescent peak area at 600 nm vs time) ([3]; 0.1 mM, 2-hour monitoring, 1 μm diameter gold array): diffusing through the bilayer
Compound: COc1cccc2c1C(=O)c1c(O)c3c(c(O)c1C2=O)C[C@@](O)(C(=O)CO)C[C@@H]3O[C@H]1C[C@H](N)[C@H](O)[C@H](C)O1 [Doxorubicin]

Compound: [Ru+2].c1ccc(-c2ccccn2)nc1.c1ccc(-c2ccccn2)nc1.c1ccc(-c2ccccn2)nc1 [[Ru(bpy)3[ complex]
membrane permeability at DOPC bilayers (second emission rise and plateau) ([3]; DOPC bilayers, fluorescence): impermeable

Reference: patent publication US11892406B2, “Method and device for assaying the interaction and dynamics of permeation of a molecule and a lipid bilayer” (DUBLIN CITY UNIVERSITY, priority 2018, dated 2024)
